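Briefly, cells in 96-well plates were exposed to five compound concentrations for 48 h, and endpoints were estimated by linear interpolation. TGI: concentration producing complete growth inhibition.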
Experiments:
Assay in all cases: growth of human tumour cells (NCI), 48 h
786-0 renal = test system: 786-0 renal
A498 renal = test system: A498 renal
A549 NSCLC = test system: A549 NSCLC
ACHN renal = test system: ACHN renal
BT-549 breast = test system: BT-549 breast
CAKI-1 renal = test system: CAKI-1 renal
COLO 205 colon = test system: COLO 205 colon
DU-145 prostate = test system: DU-145 prostate
EKVX NSCLC = test system: EKVX NSCLC
HCT-116 colon = test system: HCT-116 colon
HCT-15 colon = test system: HCT-15 colon
HOP-62 NSCLC = test system: HOP-62 NSCLC
HOP-92 NSCLC = test system: HOP-92 NSCLC
HT29 colon = test system: HT29 colon
IGROV1 ovarian = test system: IGROV1 ovarian
KM12 colon = test system: KM12 colon
LOX IMVI melanoma = test system: LOX IMVI melanoma
M14 melanoma = test system: M14 melanoma
MALME-3M melanoma = test system: MALME-3M melanoma
MDA-MB-231 breast = test system: MDA-MB-231 breast
MDA-MB-435 = test system: MDA-MB-435
MDA-N = test system: MDA-N
MOLT-4 leukemia = test system: MOLT-4 leukemia
NCI-H226 lung = test system: NCI-H226 lung
NCI-H23 lung = test system: NCI-H23 lung
NCI-H460 lung = test system: NCI-H460 lung
NCI-H522 lung = test system: NCI-H522 lung
NCI/ADR-RES ovarian = test system: NCI/ADR-RES ovarian
OVCAR-3 ovarian = test system: OVCAR-3 ovarian
OVCAR-4 ovarian = test system: OVCAR-4 ovarian
OVCAR-5 ovarian = test system: OVCAR-5 ovarian
OVCAR-8 ovarian = test system: OVCAR-8 ovarian
RPMI-8226 leukemia = test system: RPMI-8226 leukemia
RXF 393 renal = test system: RXF 393 renal
SF-268 CNS = test system: SF-268 CNS
SF-295 CNS = test system: SF-295 CNS
SF-539 CNS = test system: SF-539 CNS
SK-MEL-28 melanoma = test system: SK-MEL-28 melanoma
SK-MEL-5 melanoma = test system: SK-MEL-5 melanoma
SK-OV-3 ovarian = test system: SK-OV-3 ovarian
SN12C renal = test system: SN12C renal
SNB-19 CNS = test system: SNB-19 CNS
SNB-75 CNS = test system: SNB-75 CNS
SW-620 colon = test system: SW-620 colon
T-47D breast = test system: T-47D breast
TK-10 renal = test system: TK-10 renal
U251 CNS = test system: U251 CNS
UACC-257 melanoma = test system: UACC-257 melanoma
UO-31 renal = test system: UO-31 renal
CCRF-CEM leukemia = test system: CCRF-CEM leukemia
HL-60(TB) leukemia = test system: HL-60(TB) leukemia
HS 578T breast = test system: HS 578T breast
K-562 leukemia = test system: K-562 leukemia
PC-3 prostate = test system: PC-3 prostate
SK-MEL-2 melanoma = test system: SK-MEL-2 melanoma
UACC-62 melanoma = test system: UACC-62 melanoma

Molecule CSc1ncc2c(n1)C(C#N)C1Sc3ccccc3N1C2=O (centres undefined) has a TGI (786-0 renal) greater than 100 µM, a TGI (A498 renal) greater than 100 µM and a TGI (A549 NSCLC) greater than 100 µM. The TGI (ACHN renal) was greater than 100 µM, the TGI (BT-549 breast) was greater than 100 µM and the TGI (CAKI-1 renal) was greater than 100 µM. The TGI (COLO 205 colon) was greater than 100 µM, the TGI (DU-145 prostate) was greater than 100 µM and the TGI (EKVX NSCLC) was greater than 100 µM. For the same molecule, the TGI (HCT-116 colon) was greater than 100 µM, the TGI (HCT-15 colon) was greater than 100 µM and the TGI (HOP-62 NSCLC) was greater than 100 µM. The TGI (HOP-92 NSCLC) was greater than 100 µM, the TGI (HT29 colon) was greater than 100 µM and the TGI (IGROV1 ovarian) was greater than 100 µM. The TGI (KM12 colon) was greater than 100 µM, the TGI (LOX IMVI melanoma) was greater than 100 µM and the TGI (M14 melanoma) was greater than 100 µM. It also gave a TGI (MALME-3M melanoma) greater than 100 µM, a TGI (MDA-MB-231 breast) greater than 100 µM and a TGI (MDA-MB-435) greater than 100 µM. It also gave a TGI (MDA-N) greater than 100 µM, a TGI (MOLT-4 leukemia) greater than 100 µM and a TGI (NCI-H226 lung) greater than 100 µM. For the same molecule, the TGI (NCI-H23 lung) was greater than 100 µM, the TGI (NCI-H460 lung) was greater than 100 µM and the TGI (NCI-H522 lung) was greater than 100 µM. It also gave a TGI (NCI/ADR-RES ovarian) greater than 100 µM, a TGI (OVCAR-3 ovarian) greater than 100 µM and a TGI (OVCAR-4 ovarian) greater than 100 µM. The TGI (OVCAR-5 ovarian) was greater than 100 µM, the TGI (OVCAR-8 ovarian) was greater than 100 µM and the TGI (RPMI-8226 leukemia) was greater than 100 µM. For the same molecule, the TGI (RXF 393 renal) was greater than 100 µM, the TGI (SF-268 CNS) was greater than 100 µM and the TGI (SF-295 CNS) was greater than 100 µM. It also gave a TGI (SF-539 CNS) greater than 100 µM, a TGI (SK-MEL-28 melanoma) greater than 100 µM and a TGI (SK-MEL-5 melanoma) greater than 100 µM. It also gave a TGI (SK-OV-3 ovarian) greater than 100 µM, a TGI (SN12C renal) greater than 100 µM and a TGI (SNB-19 CNS) greater than 100 µM. It also gave a TGI (SNB-75 CNS) of 66.3 µM, a TGI (SW-620 colon) greater than 100 µM and a TGI (T-47D breast) greater than 100 µM. For the same molecule, the TGI (TK-10 renal) was greater than 100 µM, the TGI (U251 CNS) was greater than 100 µM and the TGI (UACC-257 melanoma) was greater than 100 µM. For the same molecule, the TGI (UO-31 renal) was greater than 100 µM.
Molecule CC1=NNC(=O)C1C1C(=O)NN=C(c2c[nH]c3ccccc23)C1Br (centres undefined) has a TGI (786-0 renal) greater than 100 µM, a TGI (A498 renal) greater than 100 µM and a TGI (A549 NSCLC) greater than 100 µM. The TGI (ACHN renal) was greater than 100 µM, the TGI (BT-549 breast) was greater than 100 µM and the TGI (CAKI-1 renal) was greater than 100 µM. It also gave a TGI (CCRF-CEM leukemia) of 65.5 µM, a TGI (COLO 205 colon) greater than 100 µM and a TGI (DU-145 prostate) greater than 100 µM. For the same molecule, the TGI (EKVX NSCLC) was greater than 100 µM, the TGI (HCT-116 colon) was greater than 100 µM and the TGI (HCT-15 colon) was greater than 100 µM. The TGI (HL-60(TB) leukemia) was greater than 100 µM, the TGI (HOP-62 NSCLC) was greater than 100 µM and the TGI (HOP-92 NSCLC) was greater than 100 µM. The TGI (HS 578T breast) was greater than 100 µM, the TGI (HT29 colon) was greater than 100 µM and the TGI (IGROV1 ovarian) was greater than 100 µM. It also gave a TGI (K-562 leukemia) greater than 100 µM, a TGI (KM12 colon) of 34.4 µM and a TGI (LOX IMVI melanoma) greater than 100 µM. For the same molecule, the TGI (M14 melanoma) was greater than 100 µM, the TGI (MALME-3M melanoma) was greater than 100 µM and the TGI (MDA-MB-231 breast) was greater than 100 µM. It also gave a TGI (MDA-MB-435) greater than 100 µM, a TGI (MDA-N) greater than 100 µM and a TGI (MOLT-4 leukemia) of 80.3 µM. The TGI (NCI-H226 lung) was greater than 100 µM, the TGI (NCI-H23 lung) was greater than 100 µM and the TGI (NCI-H460 lung) was greater than 100 µM. It also gave a TGI (NCI-H522 lung) of 92.4 µM, a TGI (NCI/ADR-RES ovarian) greater than 100 µM and a TGI (OVCAR-3 ovarian) greater than 100 µM. The TGI (OVCAR-5 ovarian) was greater than 100 µM, the TGI (OVCAR-8 ovarian) was greater than 100 µM and the TGI (PC-3 prostate) was greater than 100 µM. It also gave a TGI (RPMI-8226 leukemia) greater than 100 µM, a TGI (RXF 393 renal) greater than 100 µM and a TGI (SF-268 CNS) greater than 100 µM. It also gave a TGI (SF-295 CNS) of 54.7 µM, a TGI (SF-539 CNS) greater than 100 µM and a TGI (SK-MEL-2 melanoma) of 84.8 µM. For the same molecule, the TGI (SK-MEL-28 melanoma) was greater than 100 µM, the TGI (SK-MEL-5 melanoma) was greater than 100 µM and the TGI (SK-OV-3 ovarian) was greater than 100 µM. For the same molecule, the TGI (SN12C renal) was greater than 100 µM, the TGI (SNB-19 CNS) was greater than 100 µM and the TGI (SNB-75 CNS) was 58.9 µM. For the same molecule, the TGI (SW-620 colon) was greater than 100 µM, the TGI (T-47D breast) was greater than 100 µM and the TGI (TK-10 renal) was greater than 100 µM. For the same molecule, the TGI (U251 CNS) was greater than 100 µM, the TGI (UACC-257 melanoma) was greater than 100 µM and the TGI (UACC-62 melanoma) was greater than 100 µM. The TGI (UO-31 renal) was greater than 100 µM.
